Reference: patent US11834401B2, “Treating and preventing diseases by modulating cell mechanics” (THE JOHNS HOPKINS UNIVERSITY, priority 2013, dated 2023)

What was measured:
myosin II = target: T1, myosin II (Dictyostelium discoideum, UniProt P08799); assay: Myosin II cortical localization by SIM, TIRF and confocal imaging; format: cell-based
T1 construct: expressed in transfected cells; host or cells: Dictyostelium discoideum myoII null cells rescued with GFP-myosin II
Description: Micropipette aspiration was used for cortical tension and creep response measurements. Confocal imaging was performed on a Zeiss 510 Meta with a 63× (numerical aperture [NA] 1.4) objective (Carl Zeiss, Jena, Germany). Epifluorescence and TIRF imaging was performed in a 22° C. temperature controlled room with an Olympus IX81 microscope using a 40× (NA 1.3) or 60× (NA 1.49) objective and a 1.4× optovar (Olympus, Center Valley, Pa.), as previously described. Image analysis was performed with ImageJ (rsb.info.nih.gov/ij).
Imaging conditions during primary screen are described above. All other image analysis was performed as previously described (Kee Y S, et al., 2012). Cells were transferred from Petri dishes (with 0.1% DMSO incubation in growth media of 4 hrs) to imaging chambers and allowed to adhere for 20 min in growth media with 0.1% DMSO. After the cells adhered, the growth media was replaced with 2-(N-morpholino)ethanesulfonic acid (MES) starvation buffer (50 mM MES, pH 6.8, 2 mM MgCl2, 0.2 mM CaCl2) with 0.1% DMS. Confocal imaging was performed on aZeiss 510 Meta with a 63× (numerical aperture [NA] 1.4) objective (Carl Zeiss, Jena, Germany). Epifluorescence and TIR imaging was performed in a 22° C. temperature controlled room with an Olympus IX81 microscope using a 40× (NA 1.3) or 60× (NA […]) objective and a 1.4× optovar (Olympus, Center Valley, Pa.), as previously described. Image analysis was performed with ImageJ (rsb.info.nih.gov/ij). Many data sets were independently analyzed by multiple investigators.

A10.7 cells = assay: Micropipette aspiration mechanics; format: cell-based, human; settings: PDAC A10.7 cells
Description: The instrumental and experimental setups have been previously described (Effler J C, et al., 2006; Kee Y-S, et al., 2013). Micropipette aspiration assays were all carried out in growth media with 0.1% DMSO. For cortical tension measurements of Dictyostelium cells, pressure was applied to the cell cortex with a micropipette (2-3 m radius, Rp) to the equilibrium pressure (ΔP) where the length of the cell inside the pipette (Lp) was equal to Rp. The effective cortical tension (Teff) was calculated by applying the Young-Laplace equation: ΔP=2Teff(1/Rp-1/Rc), where Rc is the radius of the cell and ΔP is the equilibrium pressure when Lp=Rp (Derganc J, et al., 2000; Octtaviani E, et al., 2006). For creep tests on mammalian strains, a constant aspiration stress was applied over 60 s. The micropipette radius was 3.5-4.5 m. For quantification, the Lp/Rp ratio values was measured every two seconds and plotted as a function of time. A10.7 and HEK293 cells could only be aspirated at a low pressure range (0.15 nN/μm^2), while HPDE, ASPC-1, and HL-60 cells could be aspirated at higher pressure ranges (0.25 nN/μm^2) because they were stiffer.

[1] = tested on: myosin IIA (phosphor-Ser1943); assay: Western blot of phospho-myosin IIA; format: cell-based, human; settings: HPDE or ASPC-1 cells
Description: Pellet was resuspended in 100 μl lysis buffer minus Triton X-100, and both pellet and supernatant fractions were heated to 100° C. for 3 min with RNaseA. Samples were incubated at 37° C. for 30 min and then heated to 100° C. in sample buffer for 5 min. Samples were loaded on a 15% SDS-polyacrylamide gel. Western blot analyses of phospho-myosin IIA was performed on whole cell lysates of cells treated as above in lysate buffer with 10 mM NaF.

T1 sequence (P08799 whole entry): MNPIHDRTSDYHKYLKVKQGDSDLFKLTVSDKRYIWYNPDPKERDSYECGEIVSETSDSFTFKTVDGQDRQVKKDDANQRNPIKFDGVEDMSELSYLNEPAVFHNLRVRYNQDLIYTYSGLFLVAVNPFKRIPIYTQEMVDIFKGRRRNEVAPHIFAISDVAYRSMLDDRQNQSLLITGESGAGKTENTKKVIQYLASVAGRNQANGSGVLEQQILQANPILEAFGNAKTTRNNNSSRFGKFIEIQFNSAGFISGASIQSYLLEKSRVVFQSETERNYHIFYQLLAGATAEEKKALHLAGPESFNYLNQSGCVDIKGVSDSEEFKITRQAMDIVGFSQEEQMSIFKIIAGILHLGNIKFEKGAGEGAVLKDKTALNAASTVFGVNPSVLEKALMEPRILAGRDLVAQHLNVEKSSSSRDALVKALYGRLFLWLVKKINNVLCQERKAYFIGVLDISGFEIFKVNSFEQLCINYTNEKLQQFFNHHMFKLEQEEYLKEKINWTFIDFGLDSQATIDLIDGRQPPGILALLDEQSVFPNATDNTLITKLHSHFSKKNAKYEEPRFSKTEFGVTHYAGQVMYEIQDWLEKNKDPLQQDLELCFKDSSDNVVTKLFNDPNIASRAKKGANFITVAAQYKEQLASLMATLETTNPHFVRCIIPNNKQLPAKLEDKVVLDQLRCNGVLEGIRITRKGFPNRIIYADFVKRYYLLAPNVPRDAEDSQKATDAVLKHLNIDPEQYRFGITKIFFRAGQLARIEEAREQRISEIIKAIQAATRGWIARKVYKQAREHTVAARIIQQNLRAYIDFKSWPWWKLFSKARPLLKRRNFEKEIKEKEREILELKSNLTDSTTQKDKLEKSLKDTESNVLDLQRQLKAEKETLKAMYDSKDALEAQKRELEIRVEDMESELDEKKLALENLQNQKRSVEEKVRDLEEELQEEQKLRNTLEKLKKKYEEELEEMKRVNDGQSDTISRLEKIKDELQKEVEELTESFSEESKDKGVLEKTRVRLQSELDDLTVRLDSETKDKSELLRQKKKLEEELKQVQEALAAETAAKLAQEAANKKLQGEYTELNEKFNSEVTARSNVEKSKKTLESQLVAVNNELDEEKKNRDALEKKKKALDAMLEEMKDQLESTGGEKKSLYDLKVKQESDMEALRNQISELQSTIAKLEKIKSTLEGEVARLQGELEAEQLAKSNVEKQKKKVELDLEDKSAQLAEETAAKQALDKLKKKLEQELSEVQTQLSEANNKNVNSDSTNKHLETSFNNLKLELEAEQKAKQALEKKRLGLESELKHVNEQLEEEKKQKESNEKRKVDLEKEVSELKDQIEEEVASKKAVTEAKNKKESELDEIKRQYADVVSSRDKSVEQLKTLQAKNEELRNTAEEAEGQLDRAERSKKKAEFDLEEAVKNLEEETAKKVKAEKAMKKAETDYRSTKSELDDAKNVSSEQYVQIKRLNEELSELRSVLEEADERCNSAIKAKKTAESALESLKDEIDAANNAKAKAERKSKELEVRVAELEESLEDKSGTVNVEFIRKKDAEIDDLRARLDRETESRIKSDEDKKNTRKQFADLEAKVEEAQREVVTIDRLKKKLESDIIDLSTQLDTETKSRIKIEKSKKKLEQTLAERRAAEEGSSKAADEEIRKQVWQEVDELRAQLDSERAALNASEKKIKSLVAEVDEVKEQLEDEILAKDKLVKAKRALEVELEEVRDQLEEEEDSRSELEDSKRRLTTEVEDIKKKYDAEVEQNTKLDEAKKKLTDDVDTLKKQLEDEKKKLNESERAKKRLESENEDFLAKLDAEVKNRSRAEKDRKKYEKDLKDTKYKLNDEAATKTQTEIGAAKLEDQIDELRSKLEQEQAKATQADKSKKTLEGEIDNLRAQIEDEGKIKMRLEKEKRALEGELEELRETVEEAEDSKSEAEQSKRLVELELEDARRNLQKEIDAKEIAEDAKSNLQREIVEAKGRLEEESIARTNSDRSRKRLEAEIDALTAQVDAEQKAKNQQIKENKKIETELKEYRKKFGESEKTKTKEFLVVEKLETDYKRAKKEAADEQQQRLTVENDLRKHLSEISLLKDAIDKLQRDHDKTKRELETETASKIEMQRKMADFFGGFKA

SMILES	changes in myosin II cortical distribution (TIRF) (myosin II; 500 nM time course)	time to significant localization of GFP-myosin II (myosin II; 500 nM)	time for myosin II localization to revert to pre-treatment levels after removal (myosin II; 500 nM, washout)	increase in myosin II localization at the cortex by TIRF (myosin II; 500 nM, within 10 min)	subset of cells with BTFs accumulated into ribbon-like rings (myosin II; TIRF)	increase in myosin II at the cortex (myosin II; TIRF time course)	time for myosin II bipolar thick filaments to accumulate at the cortex (myosin II; TIRF time course)	time to steady state of myosin II cortical accumulation (myosin II; TIRF time course)	myosin II accumulation in cortexillin I deleted cells (myosin II; cortI::GFPmyo cells)	cortical enrichment of myosin II (cortex to cytoplasm) (myosin II; each degradation product tested)	cortical tension (A10.7 cells)	myosin IIA phosphorylation (phosphor-Ser1943) [1]
Nc1ccc(Cl)c(Cl)c1 [3,4-DCA, 3,4-dichloroaniline]	Neither 3,4-DCA nor the urea result in changes in myosin II cortical distribution											
CC(=O)c1ccc(O)cc1 [4-HAP, 4-hydroxyacetophenone]		≤ 10 min	≤ 15 min	2 fold	15%	2.5 fold	≤ 5 min	15 min	abolished	4-HAP alone drives myosin II relocalization	decreases the cortical tension	little effect on myosin IIA phosphorylation
